Measurements: ChEMBL document CHEMBL5046278, “Synthesis and Evaluation of Novel Tetrahydronaphthyridine CXCR4 Antagonists with Improved Drug-like Profiles” (J Med Chem, 2022)

Key:
[1] = Metabolic stability in mouse liver microsomes assessed compound remaining measured after 10 mins in presence of NADPH; assay type: ADME, Microsome; conditions: read-out: Stability
[2] = Antagonist activity at mAChR (unknown origin) expressed in CCRF-CEM cells assessed as inhibition of calcium release by calcium flux assay; assay type: cell-based; conditions: Homo sapiens
[3] = Permeability of compound at pH 5.5 incubated for 4 hrs by PAMPA assay; assay type: ADME; conditions: read-out: permeability
[4] = biological target: Cytochrome P450 2D6 (Homo sapiens, UniProt P10635); assay: Inhibition of recombinant human CYP2D6 using AMMC as substrate preincubated for 30 mins followed by substrate addition measured after 45 mins by fluorescence based assay; assay type: ADME
[5] = system: Human immunodeficiency virus 1; assay: Antiviral activity against HIV-1 NL4-3(X4) pseudovirus infected in human TZM-bl cells assessed as reduction in viral infectivity measured after 48 hrs of postinfection by luminescence assay; assay type: functional, organism-based; conditions: Human immunodeficiency virus 1, NL4-3(X4)
[6] = biological target: T1, Alpha-2A adrenergic receptor (Homo sapiens, UniProt P08913); assay: Inhibition of alpha 2A adrenergic receptor (unknown origin)
T1 sequence (P08913 whole entry): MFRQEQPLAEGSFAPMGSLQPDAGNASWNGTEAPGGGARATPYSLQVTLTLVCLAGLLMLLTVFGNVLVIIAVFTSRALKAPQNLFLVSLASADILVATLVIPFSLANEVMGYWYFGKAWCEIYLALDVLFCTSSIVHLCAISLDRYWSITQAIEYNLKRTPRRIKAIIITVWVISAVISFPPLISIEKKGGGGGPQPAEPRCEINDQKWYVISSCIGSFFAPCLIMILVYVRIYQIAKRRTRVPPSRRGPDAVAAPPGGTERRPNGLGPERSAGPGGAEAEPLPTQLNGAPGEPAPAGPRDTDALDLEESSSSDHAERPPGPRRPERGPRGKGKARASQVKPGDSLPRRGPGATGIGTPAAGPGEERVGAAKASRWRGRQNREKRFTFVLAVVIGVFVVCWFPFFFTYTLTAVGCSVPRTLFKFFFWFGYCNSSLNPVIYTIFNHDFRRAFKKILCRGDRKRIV

[7] = biological target: T2, Alpha-2C adrenergic receptor (Homo sapiens, UniProt P18825); assay: Inhibition of alpha 2C adrenergic receptor (unknown origin)
T2 sequence (P18825 whole entry): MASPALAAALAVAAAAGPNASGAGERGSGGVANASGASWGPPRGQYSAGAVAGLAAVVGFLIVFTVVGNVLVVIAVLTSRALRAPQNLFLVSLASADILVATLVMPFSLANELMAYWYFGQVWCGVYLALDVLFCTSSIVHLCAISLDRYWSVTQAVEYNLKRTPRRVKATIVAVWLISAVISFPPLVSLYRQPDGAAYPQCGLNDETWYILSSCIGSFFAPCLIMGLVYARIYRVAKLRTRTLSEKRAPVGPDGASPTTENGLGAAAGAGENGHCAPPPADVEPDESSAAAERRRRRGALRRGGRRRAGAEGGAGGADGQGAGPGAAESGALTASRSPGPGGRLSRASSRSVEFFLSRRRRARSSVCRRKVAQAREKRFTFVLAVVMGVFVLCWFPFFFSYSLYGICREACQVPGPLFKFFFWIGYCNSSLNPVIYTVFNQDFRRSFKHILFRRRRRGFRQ

[8] = Half life in mouse at 3 mg/kg, iv measured after 8 hrs by LC-MS/MS analysis; assay type: ADME, organism-based; conditions: in vivo
[9] = Cmax in mouse at 3 mg/kg, iv measured after 8 hrs by LC-MS/MS analysis; assay type: ADME, organism-based; design: route intravenous, time 8 hrs, dose 3 mg/kg; conditions: in vivo
[10] = Cmax in mouse at 10 mg/kg, po measured after 8 hrs by LC-MS/MS analysis; assay type: ADME, organism-based; design: route oral, time 8 hrs, dose 10 mg/kg; conditions: in vivo
[11] = Drug concentration in mouse plasma at 3 mg/kg, po measured at 12 hrs by LC-MS/MS analysis; assay type: ADME, organism-based
[12] = Drug concentration in mouse plasma at 10 mg/kg, po measured at 12 hrs by LC-MS/MS analysis; assay type: ADME, organism-based
[13] = AUC(0 to 8 h) in mouse plasma at 3 mg/kg, iv measured at 24 hrs by LC-MS/MS analysis; assay type: ADME, organism-based; design: route intravenous, time 24 hrs, dose 3 mg/kg; conditions: in vivo
[14] = AUC(0 to 8 h)in mouse plasma at 3 mg/kg, po measured at 24 hrs by LC-MS/MS analysis; assay type: ADME, organism-based; design: route oral, dose 3 mg/kg, time 24 hrs; conditions: in vivo
[15] = AUC(0 to 8 h) in mouse plasma at 10 mg/kg, po measured at 24 hrs by LC-MS/MS analysis; assay type: ADME, organism-based; design: route oral, dose 10 mg/kg, time 24 hrs; conditions: in vivo
[16] = AUC(0 to 8 h) in mouse plasma at 30 mg/kg, po measured at 24 hrs by LC-MS/MS analysis; assay type: ADME, organism-based; design: route oral, time 24 hrs, dose 30 mg/kg; conditions: in vivo
[17] = Oral bioavailability in mouse at 30 mg/kg measured at 24 hrs by LC-MS/MS analysis; assay type: ADME, organism-based; conditions: in vivo
[18] = Oral bioavailability in mouse at 10 mg/kg measured at 24 hrs by LC-MS/MS analysis; assay type: ADME, organism-based; conditions: in vivo
[19] = Clearence in mouse at 3 mg/kg, iv measured at 24 hrs by LC-MS analysis; assay type: ADME, organism-based; conditions: in vivo
[20] = Volume of distribution in mouse at 3 mg/kg, measured at 24 hrs by LC-MS analysis; assay type: ADME, organism-based; conditions: in vivo
[21] = biological target: Cytochrome P450 3A4 (Homo sapiens, UniProt P08684); assay: Inhibition of CYP3A4 (unknown origin); assay type: ADME
[22] = biological target: Cytochrome P450 1A2 (Homo sapiens, UniProt P05177); assay: Inhibition of CYP1A2(unknown origin); assay type: ADME
[23] = biological target: Cytochrome P450 2C8 (Homo sapiens, UniProt P10632); assay: Inhibition of CYP2C8 (unknown origin); assay type: ADME
[24] = biological target: C-X-C chemokine receptor type 3 (Homo sapiens) (UniProt P49682); assay: Inhibition of human CXCR3 at 10 uM relative to control
[25] = organism: Homo sapiens; assay: Selectivity index, ratio of IC50 for Inhibition of human ERG to IC50 for antagonist activity at human CXCR4 receptor expressed in CCRF-CEM cells; assay type: cell-based
[26] = organism: Homo sapiens; assay: Selectivity index, ratio of IC50 for inhibition of alpha 2C adrenergic receptor (unknown origin) to IC50 for antagonist activity at human CXCR4 receptor expressed in CCRF-CEM cells; assay type: cell-based
[27] = organism: Homo sapiens; assay: Selectivity index, ratio of IC50 for inhibition of mu opioid receptor (unknown origin) to IC50 for antagonist activity at human CXCR4 receptor expressed in CCRF-CEM cells; assay type: cell-based
[28] = organism: Homo sapiens; assay: Selectivity index, ratio of IC50 for inhibition of kappa opioid receptor (unknown origin) to IC50 for antagonist activity at human CXCR4 receptor expressed in CCRF-CEM cells; assay type: cell-based
[29] = organism: Homo sapiens; assay: Selectivity index, ratio of IC50 for inhibition of alpha7 nicotinic acetylcholine receptor (unknown origin) to IC50 for antagonist activity at human CXCR4 receptor expressed in CCRF-CEM cells; assay type: cell-based
[30] = organism: Homo sapiens; assay: Selectivity index, ratio of IC50 for inhibition of recombinant human CYP3A4 to IC50 for antagonist activity at human CXCR4 receptor expressed in CCRF-CEM cells; assay type: cell-based
[31] = organism: Homo sapiens; assay: Selectivity index, ratio of IC50 for inhibition of recombinant human CYP2C8 to IC50 for antagonist activity at human CXCR4 receptor expressed in CCRF-CEM cells; assay type: cell-based

Chain of Cytochrome P450 1A2 (P05177 whole entry): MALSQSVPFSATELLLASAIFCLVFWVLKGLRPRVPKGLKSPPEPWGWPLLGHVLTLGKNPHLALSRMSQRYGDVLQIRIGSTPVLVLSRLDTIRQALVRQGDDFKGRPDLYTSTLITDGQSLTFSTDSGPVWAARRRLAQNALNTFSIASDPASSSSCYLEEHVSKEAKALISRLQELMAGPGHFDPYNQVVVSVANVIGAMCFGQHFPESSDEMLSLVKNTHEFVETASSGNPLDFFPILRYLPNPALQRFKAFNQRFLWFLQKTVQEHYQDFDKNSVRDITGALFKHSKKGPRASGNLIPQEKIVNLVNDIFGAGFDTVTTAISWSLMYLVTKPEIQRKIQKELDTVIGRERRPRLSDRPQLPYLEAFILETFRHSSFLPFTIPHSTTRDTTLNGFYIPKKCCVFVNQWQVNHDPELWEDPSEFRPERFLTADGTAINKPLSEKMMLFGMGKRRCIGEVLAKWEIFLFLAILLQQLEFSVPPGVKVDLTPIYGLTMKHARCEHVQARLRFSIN
Chain of C-X-C chemokine receptor type 3 (Homo sapiens) (P49682 whole entry): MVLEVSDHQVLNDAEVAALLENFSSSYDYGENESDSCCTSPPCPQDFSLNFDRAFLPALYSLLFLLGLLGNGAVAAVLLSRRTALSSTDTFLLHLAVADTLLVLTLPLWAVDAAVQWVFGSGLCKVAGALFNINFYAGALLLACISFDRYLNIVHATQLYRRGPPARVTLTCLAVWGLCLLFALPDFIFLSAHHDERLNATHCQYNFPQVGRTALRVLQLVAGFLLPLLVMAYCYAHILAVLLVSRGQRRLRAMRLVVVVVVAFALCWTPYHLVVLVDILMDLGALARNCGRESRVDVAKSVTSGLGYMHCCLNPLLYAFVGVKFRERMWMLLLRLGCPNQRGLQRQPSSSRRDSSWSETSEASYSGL
Chain of Cytochrome P450 2C8 (P10632 whole entry): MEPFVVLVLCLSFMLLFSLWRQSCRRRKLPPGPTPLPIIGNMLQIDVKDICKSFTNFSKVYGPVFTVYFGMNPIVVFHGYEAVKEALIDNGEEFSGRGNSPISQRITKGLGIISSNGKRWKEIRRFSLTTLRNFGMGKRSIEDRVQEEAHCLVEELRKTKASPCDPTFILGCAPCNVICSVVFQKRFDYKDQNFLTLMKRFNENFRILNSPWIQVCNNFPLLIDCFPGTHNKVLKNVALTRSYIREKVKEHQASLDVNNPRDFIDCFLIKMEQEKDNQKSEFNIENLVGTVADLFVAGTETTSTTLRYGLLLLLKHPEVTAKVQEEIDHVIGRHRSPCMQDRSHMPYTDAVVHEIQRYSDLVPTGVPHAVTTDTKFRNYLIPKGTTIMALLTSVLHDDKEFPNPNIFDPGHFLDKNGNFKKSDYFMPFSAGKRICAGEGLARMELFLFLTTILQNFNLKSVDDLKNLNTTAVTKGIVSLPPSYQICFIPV
Chain of Cytochrome P450 2D6 (P10635 whole entry): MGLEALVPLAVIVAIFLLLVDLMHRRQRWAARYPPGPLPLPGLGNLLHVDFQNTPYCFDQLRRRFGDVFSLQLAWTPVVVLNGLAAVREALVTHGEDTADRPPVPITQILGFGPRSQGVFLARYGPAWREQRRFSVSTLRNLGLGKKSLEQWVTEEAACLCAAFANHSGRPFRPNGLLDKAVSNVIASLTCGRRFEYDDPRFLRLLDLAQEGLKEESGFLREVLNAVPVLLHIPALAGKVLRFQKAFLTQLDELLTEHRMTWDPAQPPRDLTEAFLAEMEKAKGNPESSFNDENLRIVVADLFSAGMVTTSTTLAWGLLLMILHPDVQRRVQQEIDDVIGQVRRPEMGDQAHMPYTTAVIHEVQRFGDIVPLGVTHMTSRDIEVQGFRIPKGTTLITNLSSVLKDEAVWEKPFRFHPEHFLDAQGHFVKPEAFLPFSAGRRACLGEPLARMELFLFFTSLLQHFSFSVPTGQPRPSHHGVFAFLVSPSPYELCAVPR
Chain of Cytochrome P450 3A4 (P08684 whole entry): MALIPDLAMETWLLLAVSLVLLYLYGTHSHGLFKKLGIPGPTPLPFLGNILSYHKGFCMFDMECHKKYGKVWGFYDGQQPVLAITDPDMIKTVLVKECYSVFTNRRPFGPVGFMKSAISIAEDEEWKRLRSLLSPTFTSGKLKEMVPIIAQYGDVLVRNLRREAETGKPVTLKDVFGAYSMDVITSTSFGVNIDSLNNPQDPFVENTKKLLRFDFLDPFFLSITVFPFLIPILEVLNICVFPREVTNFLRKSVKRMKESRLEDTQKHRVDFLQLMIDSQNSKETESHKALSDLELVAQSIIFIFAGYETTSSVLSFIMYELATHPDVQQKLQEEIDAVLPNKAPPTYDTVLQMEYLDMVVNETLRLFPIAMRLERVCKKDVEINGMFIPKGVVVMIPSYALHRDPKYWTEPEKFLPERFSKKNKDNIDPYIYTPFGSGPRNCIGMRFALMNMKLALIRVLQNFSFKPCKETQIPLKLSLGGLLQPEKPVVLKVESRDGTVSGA

For CN(CCCCN(C[C@H]1Cc2ncccc2CN1)[C@H]1CCCc2cccnc21)C1CCC(F)(F)CC1, the remaining at 10 min [1] was 35%, the IC50 [2] was > 17 µM and the Papp at 4 h [3] was 1.5 ×10⁻⁶ cm/s. It also gave an IC50 [4] of 13 µM, an IC50 [5] of 0.007 µM and an IC50 [6] of 0.81 µM. The IC50 [7] was > 30 µM, the half-life [8] was 5.89 h and the Cmax [9] was 116 ng/mL. The Cmax [10] was 54.8 ng/mL, the concentration at 12 h [11] was 1.5 ng/mL and the concentration at 12 h [12] was 14.3 ng/mL. For the same compound, the AUC [13] was 265 h/ng/mL, the AUC [14] was 34.3 h/ng/mL and the AUC [15] was 190 h/ng/mL. The AUC [16] was 717 h/ng/mL, the bioavailability [17] was 27.1% and the bioavailability [18] was 21.5%. For the same compound, the clearance [19] was 188 mL/min/kg, the Vd [20] was 96.3 L/kg and the IC50 [21] was > 20 µM. For the same compound, the IC50 [22] was > 20 µM, the IC50 [23] was > 20 µM and the inhibition [24] was < 5%. For the same compound, the Selectivity Index [25] was 710, the Selectivity Index [26] was > 1000 and the Selectivity Index [27] was > 1000. The Selectivity Index [28] was > 1000, the Selectivity Index [29] was > 1000 and the Selectivity Index [30] was > 710. The Selectivity Index [31] was > 710.
